≈ marks a conversion by molar mass, not a printed value.
How the values were obtained:
Format in all cases: functional
Details in all cases: Macrococcoides caseolyticum
Macrococcus caseolyticus [1] = assay: Antimicrobial activity against multidrug-resistant Macrococcus caseolyticus JCSC7528 containing plasmid pMCCL2 which carries transposon containing (mecA(m)-mecR1(m)-mecI(m)-blaZ(m)) complex isolated from chicken by agar dilution method
Macrococcus caseolyticus [2] = assay: Antimicrobial activity against Macrococcus caseolyticus ATCC 13548T by agar dilution method
Macrococcus caseolyticus [3] = assay: Antimicrobial activity against Macrococcus caseolyticus ATCC 29750 by agar dilution method
Macrococcus caseolyticus [4] = assay: Antimicrobial activity against multidrug-resistant Macrococcus caseolyticus JCSC5402 containing plasmid pMCCL2 which carries transposon containing (mecA(m)-mecR1(m)-mecI(m)-blaZ(m)) complex isolated from chicken by agar dilution method
Macrococcus caseolyticus [5] = assay: Antimicrobial activity against Macrococcus caseolyticus ATCC 51835 by agar dilution method
Macrococcus caseolyticus [6] = assay: Antimicrobial activity against multidrug-resistant Macrococcus caseolyticus JCSC7096 containing plasmid pMCCL2 which carries transposon containing (mecA(m)-mecR1(m)-mecI(m)-blaZ(m)) complex isolated from chicken by agar dilution method
Macrococcus caseolyticus [7] = assay: Antimicrobial activity against Macrococcus caseolyticus ATCC 51834 by agar dilution method

Cc1onc(-c2ccccc2)c1C(=O)N[C@@H]1C(=O)N2[C@@H]1SC(C)(C)[C@@H]2C(=O)O [OXACILLIN]
MIC (Macrococcus caseolyticus [1]): 32 µg/mL (≈ 79.7 µM)
MIC (Macrococcus caseolyticus [2]): 0.125 µg/mL (≈ 0.311 µM)
MIC (Macrococcus caseolyticus [3]): 0.125 µg/mL (≈ 0.311 µM)
MIC (Macrococcus caseolyticus [4]): 128 µg/mL (≈ 319 µM)
MIC (Macrococcus caseolyticus [5]): 0.25 µg/mL (≈ 0.623 µM)
MIC (Macrococcus caseolyticus [6]): 64 µg/mL (≈ 159 µM)
MIC (Macrococcus caseolyticus [7]): 0.125 µg/mL (≈ 0.311 µM)
